Experimental data: patent US8496928B2, “Method for preventing and treating cardiovascular diseases with BRCA1” (priority 2008, dated 2013)

Tests used:
Assay type in all cases: cell-based, human
[1] = tested on: VCAM1, ICAM1 and E-selectin; assay: VCAM1, ICAM1 and E-selectin expression in HUVECs, real-time PCR and western blot; conditions: ad-null treated HUVECs, TNFα 20 ng/ml 24 hours
Protocol: (§1) In FIG. 24A ad-null or ad-BRCA1 infected cells were trypsinized and seeded in the presence and absence of TNFα (20 ng/ml) on coated inserts and a colorimetric assay was performed after 24 hours. Migration was calculated as a percentage of ad-null controls. (n=4, **p<0.01). In FIG. 24B, ad-null or ad-BRCA1 infected HUVECs were seeded onto matrigel in the presence or absence of TNFα (20 ng/ml). Images were taken 5 hours after seeding (original magnification 20×). In FIG. 24C data was semi-quantitatively analyzed by counting tubular structures in four fields per group. Data is presented as mean±SD (n=3 in triplicate, *p<0.05, **p<0.01). HUVECs infected with ad-null or ad-BRCA1 were treated for 24 hours with TNFα (20 ng/ml). VCAM1 (FIG. 24D, FIG. 24E), ICAM1 (FIG. 24F, FIG. 24G) and E-selectin (FIG. 24H, FIG. 24I) protein and transcript expression were determined in cell extracts via western blots and real-time PCR, respectively. GAPDH was used as a loading control for western blots and as a housekeeping gene for real-time PCR. Data are expressed as mean±SD (n=3, **p<0.01).
Western blot analysis was performed according to standard procedures. Proteins from whole cell lysates of HUVECs were resolved on SDS-polyacrylamide gels and transferred to nitrocellulose membranes (Bio-Rad). Membranes were probed with primary antibodies from Santa Cruz (BRCA1), Cell Signaling (p53, p21, Ser1177-phospho-eNOS, Akt, Ser473-phospho-Akt, cleaved caspase-3), Chemicon (GADD45a, GAPDH) and BD (eNOS). Immunoblots were incubated with the appropriate horseradish peroxidase-associated secondary antibodies before signals were visualized by chemiluminescence via the ECL detection system (GE Healthcare).
Total RNA extracted from HUVECs were reverse transcribed for quantitative assessment of VCAM1, ICAM1, E-selectin and VEGFa expressions by real-time PCR using the primer pairs listed in Table 4.
PCR reactions were performed on the ABI PRISM 7900HT system (Applied Biosystems) with GAPDH acting as the housekeeping control.

HUVECs [2] = assay: Matrigel tube formation assay; conditions: TNFα 20 ng/ml
Protocol: as §1
HUVEC-associated angiogenesis was measured with the In Vitro Angiogenesis Assay Kit from Chemicon. […] Tube formation was quantified by counting the number of tubes, branching points and network of tubes in randomly captured microscopic fields and by scoring the values for each type of structure. […]

HUVECs [3] = assay: HUVEC apoptosis assays (Annexin V-FITC/PI flow cytometry, cleaved caspase-3, DNA fragmentation); conditions: ad-null infected HUVECs, TNFα 20 ng/ml 24 hours
Protocol: In FIG. 23A ad-null or ad-BRCA1 infected HUVECs were treated with TNFα (20 ng/ml) for 24 hours. Cells were harvested for Annexin V-FITC and Propidium Iodide staining followed by flow cytometry. Total apoptotic cells are shown as mean±SD (n=3 in triplicate, **p<0.01). In FIG. 23B, HUVECs were treated with either siBRCA1 (10 nM) or scrambled siRNA (10 nM) for 24 hours. BRCA1-silenced and control HUVECs were treated with TNFα (20 ng/ml), stained with Annexin V-FITC and Propidium Iodide, and analyzed by flow cytometry. The percentage of total apoptotic cells are presented as mean±SD (n=3 in triplicate, **p<0.01). […] Data was calculated as the percentage of total apoptotic cells and presented as mean±SD (n=3 in triplicate, **p<0.01).
FIG. 31 is a bar graph showing protection of HUVECs against doxorubicin-induced apoptosis by BRCA1 overexpression. […] Data was calculated as the percentage of total apoptotic cells and presented as mean±SD (n=3 in triplicate, *p<0.01 vs. Ad-null group, †p<0.01 vs. Ad-null+2 μM Dox group). […]
Human umbilical vein endothelial cells (HUVECs) were purchased from Cambrex and cultured in MCDB-131 complete medium (Cambrex Corporation). […] These concentrations were determined from pilot optimization studies. […]
Apoptotic and necrotic cell death were assessed in ad-BRCA1 and ad-null infected HUVECs by flow cytometry coupled with the BD Annexin V-FITC Apoptosis Detection Kit. […]

TNFα
E-selectin transcript upregulation [1]: 200 times | ICAM1 transcript upregulation [1]: 400 times | VCAM1 transcript upregulation [1]: 1500 times | capacity to form vessel-like tubular structures (HUVECs [2]): reduced | apoptosis (HUVECs [3]): significant apoptosis
